The results in this text go back to patent US20250197372A1 (priority 2020, published 2025).

The structures appear in SMILES notation.

One assay has as its target T1, recombinant alpha-glucosidase I (human full-length glucosidase I, Glu 1) (Homo sapiens, UniProt Q13724).
T1 construct: 6-His (C); made in house; host or cells: HEK-293T cells transduced with BacMam virus (virus raised in Sf9)
T1 sequence (Q13724 1-837): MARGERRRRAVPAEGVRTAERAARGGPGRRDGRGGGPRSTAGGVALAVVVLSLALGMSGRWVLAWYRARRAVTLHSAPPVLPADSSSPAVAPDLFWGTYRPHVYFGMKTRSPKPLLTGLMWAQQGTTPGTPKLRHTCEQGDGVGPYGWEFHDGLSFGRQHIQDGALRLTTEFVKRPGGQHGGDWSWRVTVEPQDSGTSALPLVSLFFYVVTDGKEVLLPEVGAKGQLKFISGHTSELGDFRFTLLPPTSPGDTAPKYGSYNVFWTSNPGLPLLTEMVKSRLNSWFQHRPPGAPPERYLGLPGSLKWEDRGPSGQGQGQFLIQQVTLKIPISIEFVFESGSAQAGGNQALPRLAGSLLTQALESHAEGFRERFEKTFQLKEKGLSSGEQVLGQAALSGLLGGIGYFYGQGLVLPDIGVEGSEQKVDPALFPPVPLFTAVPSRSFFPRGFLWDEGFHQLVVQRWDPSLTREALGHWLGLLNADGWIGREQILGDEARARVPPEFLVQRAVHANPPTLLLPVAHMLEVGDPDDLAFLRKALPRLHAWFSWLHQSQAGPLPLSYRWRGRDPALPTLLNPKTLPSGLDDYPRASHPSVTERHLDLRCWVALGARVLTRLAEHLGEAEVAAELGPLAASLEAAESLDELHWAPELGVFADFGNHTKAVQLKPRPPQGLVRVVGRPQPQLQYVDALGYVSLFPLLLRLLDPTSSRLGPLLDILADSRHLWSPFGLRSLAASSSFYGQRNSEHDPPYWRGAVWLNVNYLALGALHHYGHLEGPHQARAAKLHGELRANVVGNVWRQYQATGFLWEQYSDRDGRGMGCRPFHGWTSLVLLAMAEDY
Put plainly: Alpha-glucosidase I assay (Amplex Red glucose detection, synthetic trisaccharide substrate).
Conditions: not given
It counts as biochemical. From the text: Preparation of Human Full-length Glucosidase I: The amino acid sequence for human full-length glucosidase I was obtained from UniProt (Q13724). […] The entry vector was cloned into Kemp Proteins' BacMam Destination vector and transformed into chemically competent DH10Bac E. coli cells to produce recombinant glucosidase I bacmids. Bacmid isolates were obtained following two rounds of blue-white screening and they were transfected into Sf9 cells cultivated in serum-free medium (Thermo Fisher Scientific). Four days post-transfection the culture supernatants containing virus were harvested and filter sterilized. […] A multiplicity of infection (MOI, ratio of virus to cells) of 4 was selected. Soluble glucosidase I was detected by anti-His western blots in the soluble cell extract following extraction with 1% V/V NP40 for 30 minutes at 0° C. Productions and purifications of glucosidase I were carried out at scales ranging from 1-liter to 10-liters. […] In another example production at the 10-liter scale was performed in stirred-tank bioreactors at 27° C. and 80 rpm with dissolved oxygen level at 50% of oxygen in air and pH between 7.0 and 7.2. Cells were transduced at MOI of 4 and the cell pellet was harvested at 48 hours post-transduction using centrifugation.
The pellet from a 10-liter culture was lysed by resuspending the pellet into 1-liter of 50 mM NaH2PO4—H2O+300 mM NaCl+10 mM Imidazole+1 mM PMSF+1% V/V NP40 pH 8. The suspension was incubated on ice for 30 minutes and clarified at 500×g and 4° C. The supernatant was collected and clarified at 20,000×g for 30 minutes at 4° C. and the supernatant was collected and filtered through a 0.2 micron filter. […] The column was washed with 20 column volumes (CV) of 50 mM NaH2PO4-H2O+300 mM NaCl+10 mM Imidazole pH 8 and eluted using a linear gradient of 0-60% 50 mM NaH2PO4-H2O+300 mM NaCl+500 mM Imidazole pH 8 over 90 minutes. at 5 mL per minute. Fractions (25 mL) were collected and analyzed by SDS PAGE and Western Blot (reducing anti-His). Fractions containing purified glucosidase I were pooled and dialyzed into storage buffer (20 mM Tris+300 mM NaCl+50 mM L-arginine+10 mM EDTA+0.01% V/V Tween 80 pH 7.5). The final material was filter sterilized and stored at 4° C. and the working dilution confirmed by a use-test in the indicated assay conditions prior to use.
Alpha-glucosidase I Assay: The assay was performed by incubating recombinant alpha-glucosidase I enzyme with multiple dilutions of test compounds for 60 minutes at 37° C. A synthetic trisaccharide substrate analog was then introduced to the mixture for 90 minutes at 37° C. The reaction was then stopped with 1.5M Tris (pH 8). In the absence of inhibition, the terminal glucose of the substrate was hydrolyzed by the enzyme. The D-glucose product was detected using Amplex Red Glucose/Glucose Oxidase Assay Kit (Invitrogen) following the manufacturer's directions where glucose oxidase reacts with D-glucose to form D-gluconolactone and H2O2 which then reacts with the Amplex Red reagent to generate a red-fluorescent oxidation product (560 nm, excitation; 590 nm, emission). […] Percent inhibition is plotted as a function of concentration for each compound, compared to control reactions. The IC50 was determined using a 4-PL curve fit and serves as a measure of relative inhibitory activity of each test compound (see Table 3).
With `O=[N+]([O-])c1cc(N2C3CCC2COC3)ccc1NCc1ccc(CN2CC(O)C(O)C(O)C2CO)cc1` (stereo in doubt) [Compound 1018, (2S,3S,4S,5R)-2-(hydroxymethyl)-1-({4-[({2-nitro-4-[(1R,5S)-3-oxa-8-azabicyclo[3.2.1]octan-8-yl]phenyl}amino)methyl]phenyl}methyl) piperidine-3,4,5-triol], the IC50 (commonly the concentration that inhibits the measured activity by half) is below 1 nM. Still for that read-out and setting: to `OC[C@@H]1[C@@H](O)[C@H](O)[C@@H](O)CN1CCCCCCNc1cc(-c2cccnn2)cc(C2CC2)c1` [Compound 1008, (2R,3R,4R,5S)-1-(6-{[3-cyclopropyl-5-(pyridazin-3-yl)phenyl]amino}hexyl)-2-(hydroxymethyl)piperidine-3,4,5-triol] belongs 103 nM; to `C[C@@H]1CN(c2ccc(NCc3ccc(CN4C[C@H](O)[C@@H](O)[C@H](O)[C@H]4CO)cc3)c([N+](=O)[O-])c2)C[C@H](C)O1` [Compound 1014], 1 nM; to `CS(=O)(=O)c1cc(Br)cc(NCc2cccc(CN3C[C@H](O)[C@@H](O)[C@H](O)[C@H]3CO)c2)c1` [Compound 1022, (2R,3R,4R,5S)-1-[(3-{[(3-bromo-5-methanesulfonylphenyl)amino]methyl}phenyl)methyl]-2-(hydroxymethyl)piperidine-3,4,5-triol], 19 nM. In the case of `Cc1cc(NCc2cccc(CN3C[C@H](O)[C@@H](O)[C@H](O)[C@H]3CO)c2)cc(-c2ncccn2)c1` [Compound 1035, (2R,3R,4R,5S)-2-(hydroxymethyl)-1-{[3-({[3-methyl-5-(pyrimidin-2-yl)phenyl]amino}methyl)phenyl]methyl}piperidine-3,4,5-triol], the IC50 amounted to 44 nM. The same measure, in the same setting: the same measure for `CS(=O)(=O)c1cc(NCc2cccc(CN3C[C@H](O)[C@@H](O)[C@H](O)[C@H]3CO)c2)cc(-c2cccnn2)c1` [Compound 1040, (2R,3R,4R,5S)-2-(hydroxymethyl)-1-{[3-({[3-methanesulfonyl-5-(pyridazin-3-yl)phenyl]amino}methyl)phenyl]methyl}piperidine-3,4,5-triol]: 17 nM; for `CS(=O)(=O)c1cc(NCc2cccc(CN3C[C@H](O)[C@@H](O)[C@H](O)[C@H]3CO)c2)cc(-c2ncccn2)c1` [Compound 1041, (2R,3R,4R,5S)-2-(hydroxymethyl)-1-{[3-({[3-methanesulfonyl-5-(pyrimidin-2-yl)phenyl]amino}methyl)phenyl]methyl}piperidine-3,4,5-triol]: 17 nM. Regarding `N#Cc1cc(NCc2cccc(CN3C[C@H](O)[C@@H](O)[C@H](O)[C@H]3CO)c2)cc(C2=COCCO2)c1` [Compound 1044, 3-(5,6-dihydro-1,4-dioxin-2-yl)-5-{[(3-{[(2R,3R,4R,5S)-3,4,5-trihydroxy-2-(hydroxymethyl)piperidin-1-yl]methyl}phenyl)methyl]amino}benzonitrile], the IC50 was found to be 3 nM. As to `Cc1cc(NCc2ccc(CN3C[C@H](O)[C@@H](O)[C@H](O)[C@H]3CO)cc2)cc(-c2cccnn2)c1` [Compound 1052, (2R,3R,4R,5S)-2-(hydroxymethyl)-1-{[4-({[3-methyl-5-(pyridazin-3-yl)phenyl]amino}methyl)phenyl]methyl}piperidine-3,4,5-trio], the IC50 worked out at 73 nM. For the compound `CS(=O)(=O)c1cc(NCc2ccc(CN3C[C@H](O)[C@@H](O)[C@H](O)[C@H]3CO)cc2)cc(-c2cccnn2)c1` [Compound 1058, (2R,3R,4R,5S)-2-(hydroxymethyl)-1-{[4-({[3-methanesulfonyl-5-(pyridazin-3-yl)phenyl]amino}methyl)phenyl]methyl}piperidine-3,4,5-triol], the IC50 amounted to 21 nM. Same read-out and setting: the same measure for `O=[N+]([O-])c1cc(N2CCOCC2)ccc1NCc1cccc(CN2C[C@H](O)[C@@H](O)[C@H](O)[C@H]2CO)c1` [Compound 1067, (2R,3R,4R,5S)-2-(hydroxymethyl)-1-{[3-({[4-(morpholin-4-yl)-2-nitrophenyl]amino}methyl)phenyl]methyl}piperidine-3,4,5-triol]: 99 nM; for `OC[C@@H]1[C@@H](O)[C@H](O)[C@@H](O)CN1Cc1ccc(CNc2ccc(N3CCOCC3)cc2)cc1` [Compound 1068]: 122 nM; for `OC[C@@H]1[C@@H](O)[C@H](O)[C@@H](O)CN1CCc1ccc(CCNc2cc(Cl)cc(-c3ncon3)c2)cc1` [Compound 1113, (2R,3R,4R,5S)-1-{2-[4-(2-{[3-chloro-5-(1,2,4-oxadiazol-3-yl)phenyl]amino}ethyl)phenyl]ethyl}-2-(hydroxymethyl)piperidine-3,4,5-triol]: 1010 nM.

Staying with this assay, now noted: Glucosidase 1; read-out: Glu 1 IC50.
With `[N-]=[N+]=Nc1ccc(NCCc2ccc(CCN3C[C@@H](O)[C@H](O)[C@@H](O)[C@@H]3CO)c3ccccc23)c([N+](=O)[O-])c1` (stereo in doubt) [Compound 1178, (2S,3S,4S,5R)-1-[2-(4-{2-[(4-azido-2-nitrophenyl)amino]ethyl}naphthalen-1-yl)ethyl]-2-(hydroxymethyl)piperidine-3,4,5-triol], the IC50 worked out at 2730 nM. `OC[C@@H]1[C@@H](O)[C@H](O)[C@@H](O)CN1CCCCCCNc1cc(-c2ncccn2)cc(C2CC2)c1` [Compound 1009, (2R,3R,4R,5S)-1-(6-{[3-cyclopropyl-5-(pyrimidin-2-yl)phenyl]amino}hexyl)-2-(hydroxymethyl)piperidine-3,4,5-triol]: the IC50 is 163 nM. Turning to `OC[C@@H]1[C@@H](O)[C@H](O)[C@@H](O)CN1Cc1ccc(CNc2cc(C3CC3)cc(N3CCOCC3)c2)cc1` [Compound 1010, (2R,3R,4R,5S)-1-{[4-({[3-cyclopropyl-5-(morpholin-4-yl)phenyl]amino}methyl)phenyl]methyl}-2-(hydroxymethyl)piperidine-3,4,5-triol], the IC50 is 199 nM. Same read-out and setting: the same measure for `OC[C@@H]1[C@@H](O)[C@H](O)[C@@H](O)CN1Cc1ccc(CNc2cc(-c3cccnn3)cc(C3CC3)c2)cc1` [Compound 1012, (2R,3R,4R,5S)-1-{[4-({[3-cyclopropyl-5-(pyridazin-3-yl)phenyl]amino}methyl)phenyl]methyl}-2-(hydroxymethyl)piperidine-3,4,5-triol]: 18 nM; for `OC[C@@H]1[C@@H](O)[C@H](O)[C@@H](O)CN1Cc1ccc(CNc2cc(-c3ncccn3)cc(C3CC3)c2)cc1` [Compound 1013, (2R,3R,4R,5S)-1-{[4-({[3-cyclopropyl-5-(pyrimidin-2-yl)phenyl]amino}methyl)phenyl]methyl}-2-(hydroxymethyl)piperidine-3,4,5-triol]: 53 nM.
